Test results reported in PubChem BioAssay (NCI).
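Results reflect a 48-hour exposure of cells in 96-well plates to compound at five concentrations. Definition used: TGI = concentration required for complete inhibition of growth.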

Tested on: P388 leukemia
Assay: NCI tumour cell line growth inhibition, 48 h

For `CC[C@@]1(O)C(=O)OCc2c1cc1n(c2=O)Cc2cc3c(N)cccc3nc2-1`, the TGI was 0.3 µM.
